The values that follow come from patent US20060134738A1, “Gene expression inducing fusion protein and method for controlling gene expression Induction” (priority 2003, published 2006).

Holding throughout (assay type): cell-based
In test [1] the test system is proteins containing CVLS, CVLL or SVLS boxes in HeLa cells. The test is described as follows: Subcellular localization of fusion proteins by fluorescence microscopy (FIGS. 6A and B). The following applies: treatment 8 hours, immunofluorescence with anti-HA antibody. The source says:
Moreover, the subcellular localization of proteins containing CVLS, CVLL or SVLS boxes was verified.
To do this, these boxes were fused with the YFP protein (yellow fluorescent protein), and all the fusion proteins were cloned with an HA sequence in the N-terminal position. The constructs were transiently transfected into HeLa cells, and the localization of the fusion proteins was followed by fluorescence microscopy after immunofluorescence with an anti-HA antibody (FIGS. 6A and B, in color).

In test [2] the test system is R17-4G-CAAX constructs (CVLS, CVLL, SVLS) in HeLa cells. Nature of the test: Translation activation in HeLa clones with integrated reporter, transiently transfected with R17-4G-CAAX constructs (FIG. 5). The following applies: for activation of translation relative to the DMSO controls, R17-4G-SVLS: construct neither farnesylated nor geranylated; for activation of translation relative to the DMSO controls, R17-4G-CVLS: construct with farnesylations box; for activation of translation relative to the DMSO controls, R17-4G-CVLL: construct with geranylations box. Here is the method: The pCRL138 or pCRL138-R17 reporter sequences are integrated into the genome of HeLa cells, and various R17-4G-CAAX constructs—where CAAX can be farnesylated, “CVLS”, or geranylgeranylated, “CVLL”, or no longer undergo any post-translational modifications of this type, “SVLS”,—are transiently transfected into these two clones.
After transfection, the cells are treated with FTI 277 (farnesyltransferase inhibitor) or GGTI 298 (geranyltransferase inhibitor).

For test [3], the system named is farnesylation of R17-4G-CVLS. Nature of the test: LucF/LucR induction in HeLa clone with integrated R17-4G-CVLS, prenyltransferase inhibitors (FIG. 2A, 2B). The following applies: for induction (quotient of LucF and LucR relative to the DMSO control): reporters pCRL138 and pCRL138-R17, FIG. 2A. Here is the method:
The nucleic acid encoding the R17-4G-CVLS protein is integrated into the genome of HeLa cells. The reporter plasmids pCRL138 and pCRL138-R17 are transiently transfected into this clone. The products that act on farnesylation of R17-4G-CVLS are then sought.
DMSO is the solvent in which the products (FTI 277 and GGTI 298) that are added to the culture medium are dissolved, and therefore represents an induction control.
The white rectangles represent the RNA which carries the R17 protein recognition sequence. The black rectangles represent the activities obtained under the same conditions with an RNA sequence that is similar but no longer carries the R17 recognition; it is therefore the negative control for the first construct.
The induction is represented by the quotient of the LucF and LucR values measured directly in the presence of an agent (FTI 277 or GGTI 298), relative to the DMSO control.

In test [4] the test system is HMGCoA-reductase. The test is described as follows: LucF/LucR ratio in HeLa cells stably transfected with R17-4G-CVLS, screening of HMGCoA-reductase inhibitors (FIG. 3). The following applies: for HMGCoA-reductase inhibiting activity (LucF/LucR ratio relative to a DMSO control): HeLa stably R17-4G-CVLS, reporters pCRL138 and pCRL138-R17, FIG. 3; for effect of mevalonate on the inhibitory activity (LucF/LucR ratio): in the presence of mevalonate, FIG. 3. The source says:
HMGCoA-reductase, which synthesizes melavonate, is involved in isoprenylation, a post-translational modification of proteins such as 4G-CVLS.
In FIG. 3, the cells used during these tests are HeLa cells stably transfected with the plasmid encoding the R17-4G-CVLS fusion protein, and transiently transfected with the bicistronic reporter plasmids pCRL138 and pCRL138-R17.
The results are given in the form of the ratio of LucF/LucR activity in the presence of various pharmacological agents in the culture medium, relative to a DMSO control.
The model used also made it possible to screen potential HMGCoA-reductase inhibiting agents.

The subject of test [5] is Farnesyl Pyrophosphate Synthase, also called FPP-synthase. The test is described as follows: LucF/LucR ratio in HeLa cells stably transfected with R17-4G-CVLS, FPP-synthase inhibitors (FIG. 4). The conditions noted are these: HeLa stably R17-4G-CVLS. The source says:
This enzyme is required for the biosynthesis of farnesyl pyrophosphates.
In these tests represented in FIG. 4, the same cellular model as in b), stably transfected with R17-4G-CVLS, is used.

Test [6] deals with translation of the second cistron (LucF/LucR ratio), SKHep-1 human hepatoma cells. Nature of the test: LucF/LucR translation induction in transiently transfected SKHep-1 cells (FIG. 1). The following applies: inhibitor 15 μM, 1 to 8 hours. The source says:
1. “Reporter” plasmids that make it possible to transcribe, in the cells, a bicistronic RNA encoding the LucR (Renilla luciferase) reporter protein in the first cistron and the LucF (firefly luciferase) reporter protein in the second cistron. The plasmids pCRL30-R17 or pCRL138-R17 also contain, in the intercistron space of the mRNA, a binding site for the capsid protein of the R17 bacteriophage (plasmid).
2. Effector plasmids which will be able to express, in the cells: • a fusion protein consisting of the R17 phage capsid protein fused with the C-terminal region of the eIF4G translation initiation factor, for the plasmid pCI R17-4G, • a fusion protein consisting of the R17 phage capsid protein fused with the C-terminal region of the eIF4G translation initiation factor and a farnesylation protein domain (of protein sequence CVLS), for the plasmid pCI R17-4G-CVLS.
The procedure is carried out in the following way. SKHep-1 human hepatoma cells are transiently transfected with cationic liposomes using 10 pmol of reporter plasmids and 5 pmol of activator plasmids per 1 million cells. […]
After lysis of the cells, the LucR and LucF activities are assayed using the “Dual-Luciferase (TM) reporter system” kit (Promega E1980) on a Berthold LB96B luminescence device. […]

Test [7] concerns p27Kip1 protein expression in CHO (Chinese hamster ovary) cells. The test is described as follows: p27 expression by Western blotting in cotransfected CHO cells (FIG. 7). The conditions noted are these: 8 hours. The source says: The reporter plasmid constructed in the context of this example makes it possible to transcribe, in mammalian cells in culture ex vivo, a bicistronic RNA encoding a truncated H2-Kk protein (mouse MHC class I molecule) as a marker for selection of the transfected cells, and encoding the p27Kip1 protein which is a cell cycle-inhibiting protein. The bicistronic RNA also contains, in the intercistron space, a binding site for the R17 bacteriophage capsid protein. This bicistronic RNA is very diagrammatically represented in FIG. 7.
The effector plasmid used is the one for expressing the R17-4G-CVLS fusion protein.
CHO (Chinese hamster ovary) cells are transiently transfected with cationic liposomes using 10 pmol of reporter plasmids and 5 pmol of activator plasmids per 1 million cells. Twelve hours after transfection, the cells are treated for 8 hours with the farnesyltransferase inhibitor (Cys-Val-3(2-naphthyl)Ala-Met; Sigma C4433) at a final concentration of 1 μM in the culture medium. […]
The expression of the p27 protein (ap27 line) is examined by Western blotting with a monoclonal antibody (Ref. 610241, BD Bioscience Pharmingen). The expression of the R17-4G-CVLS fusion protein (aHA line) is detected by Western blotting using a monoclonal antibody against the HA peptide (Eurogentec) located at the NH2-terminal end of the R17-4G-CVLS protein. […]
Background: A western blot detects proteins with antibodies after separation by electrophoresis.

Turning to `COC(=O)[C@H](CCSC)NC(=O)c1ccc(NC[C@@H](N)CS)cc1-c1ccccc1` [FTI 277], the “relocalization of fusion proteins to the cytoplasm” value in test [1] was “relocalizes only the YFP-CVLS and R17-4G-CVLS proteins to the cytoplasm”. Also, in test [2], the “activation of translation relative to the DMSO controls, R17-4G-SVLS” value is “neither of the two molecules is capable of activation”; the “activation of translation relative to the DMSO controls, R17-4G-CVLS” value is on record as “capable of activating translation”; the “activation of translation relative to the DMSO controls, R17-4G-CVLL” value is listed as “only GGTI 298 is capable of activating translation”. In addition, the “treatment time at which the maximum activation effect is obtained” value in test [3] (HeLa, integrated R17-4G-CVLS, kinetics FIG. 2A) amounted to 8 h. Moreover, the “induction (quotient of LucF and LucR relative to the DMSO control)” value in test [3] (HeLa, integrated R17-4G-CVLS) is “has an inducer effect”. The “reversibility of the activation effect (LucF/LucR activation ratio after removal of the product)” value in test [3] (cells treated for 8 h with 1 μM, then product removed, FIG. 2B) is on record as “reversible”.
In the case of `COC(=O)[C@H](CC(C)C)NC(=O)c1ccc(NC[C@@H](N)CS)cc1-c1cccc2ccccc12` [GGTI 298], in test [2], the “activation of translation relative to the DMSO controls, R17-4G-SVLS” value was “neither of the two molecules is capable of activation”; the “activation of translation relative to the DMSO controls, R17-4G-CVLS” value was “only FTI 277 is capable of activating translation”; the “activation of translation relative to the DMSO controls, R17-4G-CVLL” value is reported as “capable of activating translation”. Also, in test [3] (HeLa, integrated R17-4G-CVLS), the “induction (quotient of LucF and LucR relative to the DMSO control)” value is recorded as “has no activation effect”.
As to `c1ccc(Cc2ccc(OCCN3CCCC3)cc2)cc1` [PBPE], in test [4], the “HMGCoA-reductase inhibiting activity (LucF/LucR ratio relative to a DMSO control)” value is recorded as “found to be an inhibitor of HMGCOA-reductase” and the “effect of mevalonate on the inhibitory activity (LucF/LucR ratio)” value was “compensated for by the presence of mevalonate”.
With `CC/C(=C(\c1ccccc1)c1ccc(OCCN(C)C)cc1)c1ccccc1` [tamoxifen], in test [4], the “HMGCoA-reductase inhibiting activity (LucF/LucR ratio relative to a DMSO control)” value is listed as “inhibits this enzyme even at low concentrations” and the “effect of mevalonate on the inhibitory activity (LucF/LucR ratio)” value was “reversed or compensated for by mevalonate”. Also, the “farnesylation / FPP-synthase inhibition (LucF/LucR ratio)” value in test [5] is on record as “is also an FPP-synthase inhibitor”.
Take “Cys-Val-3(2-naphthyl)Ala-Met [farnesyltransferase inhibitor]”: the “level of translation induced by the expression of the R17-4G fusion protein under inhibitor treatment (LucF/LucR ratio)” value in test [6] (SKHep-1, effector pCI R17-4G) was “not modulated”. Moreover, the “increase in translation induced by the R17-4G-CAAX inducer fusion protein under inhibitor treatment (LucF/LucR ratio)” value in test [6] (SKHep-1, effector pCI R17-4G-CVLS) is on record as “dependent on the time of treatment”. In addition, the “amount of p27 (Western blotting)” value in test [7] (CHO cotransfected with pR17-4G-CVLS and pK-R17-p27, inhibitor 1 μM) is reported as “An increase in the amount of p27”. In addition, the “amount of fusion protein produced (Western blotting, anti-HA)” value in test [7] (CHO cotransfected, with or without inhibitor 1 μM) is on record as “identical with or without treatment with the inhibitor”.
